Reference: PubChem BioAssay (NCI)
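Briefly, cells in 96-well plates were exposed to five compound concentrations for 48 h, and endpoints were estimated by linear interpolation. The concentration for 50% growth inhibition is given as GI50. TGI: total growth inhibition.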

Experiments:
Test in all cases: inhibition of tumour cell growth, NCI panel, 48 h
NCI-H460 lung = test system: NCI-H460 lung
RXF 393 renal = test system: RXF 393 renal
SF-295 CNS = test system: SF-295 CNS
U251 CNS = test system: U251 CNS
OVCAR-3 ovarian = test system: OVCAR-3 ovarian
COLO 205 colon = test system: COLO 205 colon
KM12 colon = test system: KM12 colon
UACC-62 melanoma = test system: UACC-62 melanoma
LOX IMVI melanoma = test system: LOX IMVI melanoma
HCC-2998 colon = test system: HCC-2998 colon

Structure (SMILES) | TGI (NCI-H460 lung) | TGI (RXF 393 renal) | TGI (SF-295 CNS) | TGI (U251 CNS) | TGI (OVCAR-3 ovarian) | TGI (COLO 205 colon) | TGI (KM12 colon) | TGI (UACC-62 melanoma) | TGI (LOX IMVI melanoma) | TGI (HCC-2998 colon) | GI50 (NCI-H460 lung) | GI50 (RXF 393 renal) | GI50 (SF-295 CNS) | GI50 (U251 CNS) | GI50 (OVCAR-3 ovarian) | GI50 (COLO 205 colon) | GI50 (KM12 colon) | GI50 (UACC-62 melanoma) | GI50 (LOX IMVI melanoma) | GI50 (HCC-2998 colon)
CC(=O)n1c(=O)c2cc3c(=O)n(-c4cccc(C#N)c4)c(=O)c3cc2c1=O | > 100 µM | > 100 µM | > 100 µM | > 100 µM | > 100 µM | > 100 µM | > 100 µM | > 100 µM | > 100 µM | > 100 µM | – | – | – | – | – | – | – | – | – | –
OCc1ccc(N2CCOCC2)cc1Cl | > 100 µM | > 100 µM | > 100 µM | > 100 µM | > 92 µM | > 68.1 µM | > 100 µM | > 91.2 µM | > 100 µM | > 100 µM | 30.9 µM | > 79.1 µM | 28.2 µM | > 72.2 µM | 35.2 µM | 25 µM | > 100 µM | 14.4 µM | > 100 µM | > 57.1 µM
O=[N+]([O-])c1ccc(-c2cc3c(Nc4ccc(Cl)c(C(F)(F)F)c4)ncnc3s2)cc1 | > 100 µM | 6.19 µM | 6.75 µM | > 87.8 µM | > 100 µM | 3.35 µM | > 100 µM | > 100 µM | > 100 µM | > 100 µM | 0.774 µM | 1.79 µM | 1.21 µM | 1.38 µM | 0.605 µM | 1.79 µM | 1.42 µM | 1.63 µM | 1.62 µM | 2.02 µM
O=[N+]([O-])c1cc(Cl)ccc1Sc1ccccc1 | > 100 µM | > 100 µM | > 100 µM | > 100 µM | > 100 µM | > 100 µM | > 100 µM | > 100 µM | > 100 µM | > 100 µM | – | – | – | – | – | – | – | – | – | –
[2H]c1nc(=Nc2cc(NC(=O)C=C)c(N(C)CCN(C)C)cc2OC)[nH]c(-c2cn(C([2H])([2H])[2H])c3ccccc23)c1[2H] | 4.37 µM | 3.2 µM | 4.5 µM | 3.6 µM | 2.83 µM | 3.06 µM | 11.5 µM | 3.28 µM | 3.17 µM | 2.8 µM | 1.9 µM | 1.4 µM | 1.97 µM | 1.76 µM | 1.18 µM | 1.62 µM | 3.15 µM | 1.72 µM | 1.65 µM | 1.44 µM
Nc1cc(-c2ccc(Cl)cc2)nn1-c1nnc(/C=C/c2ccco2)c(=O)[nH]1 | 15.3 µM | 34.7 µM | 27.7 µM | 37.7 µM | 8.45 µM | > 42.9 µM | > 56.6 µM | > 58.6 µM | 37.8 µM | > 84.5 µM | 2.15 µM | 9.91 µM | 2.1 µM | 3 µM | 2.16 µM | 3.64 µM | 4.05 µM | 5.45 µM | 4.82 µM | 6.6 µM
O=c1[nH]c2cc([N+](=O)[O-])ccc2nc1/C(=N\Nc1ccccc1)C(O)c1ccc2c(c1)OCO2 (stereo not given) | > 100 µM | > 100 µM | > 100 µM | > 100 µM | > 100 µM | > 100 µM | > 100 µM | > 100 µM | > 100 µM | > 100 µM | – | – | – | – | – | – | – | – | – | –
CC(C)(C)NCC(COc1ccc([N+](=O)[O-])cc1)OP(c1ccccc1)c1ccccc1 (stereo not given) | > 100 µM | > 100 µM | > 100 µM | > 100 µM | > 100 µM | > 100 µM | > 100 µM | > 100 µM | 26.7 µM | > 100 µM | – | – | – | – | – | – | – | – | – | –
